Experimental data published in patent publication US20260098061A1, “EPHA2-BINDING PENDING PEPTIDE AND COMPOSITION COMPRISING SAME” (PeptiDream Inc., priority 2022, published 2026).
Numbered stars: 1 amine (or outer) side, 2 acyl side, 3 side chain; on linkers, the order of the positions; unused ones are H or OH. Bridge positions count the residues as written; N and C are the ends. Square brackets hold non-standard residues; d marks the D form. Side chains are listed from the residue outwards. Peptide text beside a SMILES is read from it. * marks the point of attachment. NH(1-deoxy-D-glucityl) = OC[C@@H](O)[C@@H](O)[C@H](O)[C@@H](O)CN*; Trp(1-Me,7-Cl) = Cn1cc(C[C@H](N)C(=O)O)c2cccc(Cl)c21; dPhe(3-CONH2) = NC(=O)c1cccc(C[C@@H](N)C(=O)O)c1; Piperazinyl(4-CH2COOH) = O=C(O)CN1CCN(*)CC1; Trp(1-Me) = Cn1cc(C[C@H](N)C(=O)O)c2ccccc21; NMe3Pal = CN[C@@H](Cc1cccnc1)C(=O)O; NMeF = CN[C@@H](Cc1ccccc1)C(=O)O; hArg = N=C(N)NCCCC[C@H](N)C(=O)O; hCit = NC(=O)NCCCC[C@H](N)C(=O)O; Gly(cBu) = N[C@H](C(=O)O)C1CCC1; NMeE = CN[C@@H](CCC(=O)O)C(=O)O; Aad = N[C@@H](CCCC(=O)O)C(=O)O; NMeN = CN[C@@H](CC(N)=O)C(=O)O; CO = O=C([*:1])[*:2]; βAla = NCCC(=O)O

These compounds were tested against T1, Recombinant Human EphA2 Fc Protein (Homo sapiens, UniProt P29317) (assay: SPR interaction analysis (Biacore T200), kinetics of peptides against EphA2). Details: Recombinant Human EphA2 Fc Protein captured by Human Antibody Capture kit; single-cycle kinetics; 25° C.; HBS-P+ buffer with 1% DMSO.
T1 construct: purchased Elabscience
Type: binding
Experimental: Example 14 Interaction Analysis by SPR was Performed Using Biacore (Cytiva)
SPR assay was performed using Biacore T200 (Cytiva).
The HBS-P+ buffer (10 mM HEPES (pH7.4), 150 mM NaCl, 0.05% (v/V) Surfactant P20) containing 1% DMSO was used as running buffer. Recombinant Human EphA2 Fc Protein (Fc tag, Elabscience) was captured by Human Antibody Capture kit (Cytiva). Peptide samples in DMSO were diluted with running buffer, and prepared five serial dilutions. Using these serial dilutions, kinetics of peptides against EphA2 was measured at a flow rate of 30 mL/min at 25° C. The method adopted for sample measurement was a single-cycle kinetics method. The analysis was conducted using the evaluation software 3.0 provided with Biacore T200. Kinetics fitting was done on the difference data obtained by subtracting the baseline data from sample measurement data. KD values were calculated based on the association rate constant (ka) and dissociation rate constant (kd).

Kd [nM]	Compound
< 1	CC(C)C[C@@H]1NC(=O)[C@H](CC(N)=O)NC(=O)[C@H](Cc2cccnc2)N(C)C(=O)[C@@H](Cc2cccc(C(N)=O)c2)NC(=O)CSC[C@@H](C(N)=O)NC(=O)[C@H](CC(N)=O)NC(=O)[C@H]([C@@H](C)O)NC(=O)[C@H](Cc2cn(C)c3ccccc23)NC(=O)[C@H](CCC(=O)NC[C@H](O)[C@@H](O)[C@H](O)[C@H](O)CO)NC(=O)[C@H](Cc2cn(C)c3c(Cl)cccc23)NC(=O)[C@H](Cc2ccccc2)N(C)C(=O)[C@H](CC(N)=O)NC1=O [PDC_EphA2-00026424, df3CON-Me3Py-N-L-N-Me3Py-W1Me7Cl-Qglucamine-W1Me-T-N-C-NH2] ({CH2CO}-[dPhe(3-CONH2)][NMe3Pal]NLN[NMeF][Trp(1-Me,7-Cl)]E(NH(1-deoxy-D-glucityl))[Trp(1-Me)]TNC-NH2; thioether N-12)
< 1	C[C@H]1NC(=O)CSC[C@@H](C(N)=O)NC(=O)[C@H](CCCC(N)=O)NC(=O)[C@H]([C@@H](C)O)NC(=O)[C@H](Cc2cn(C)c3ccccc23)NC(=O)[C@H](CCCCNC(=O)N2CCN(CC(=O)O)CC2)NC(=O)[C@H](Cc2cn(C)c3ccccc23)NC(=O)[C@H](CC(N)=O)N(C)C(=O)[C@H](CCCC(N)=O)NC(=O)[C@H](C2CCC2)NC(=O)[C@H](CC(N)=O)NC(=O)[C@H](Cc2cccnc2)N(C)C1=O [PDC_EphA2-00010001, da-Me3Py-N-Cbg-Hgn-MeN-W1Me-KCOpipzaa-W1Me-T-Hgn-C-NH2] ({CH2CO}-[dA][NMe3Pal]N[Gly(cBu)][Aad](NH2)[NMeN][Trp(1-Me)]K([CO-Piperazinyl(4-CH2COOH)])[Trp(1-Me)]T[Aad](NH2)C-NH2; thioether N-12)
< 1	CC(C)[C@@H]1NC(=O)[C@H](Cc2cn(C)c3ccccc23)NC(=O)[C@H](CC(N)=O)NC(=O)[C@H](CCCC(N)=O)NC(=O)[C@H](C2CCC2)NC(=O)[C@H](CC(N)=O)NC(=O)[C@H](Cc2cccnc2)N(C)C(=O)[C@@H](C)NC(=O)CSC[C@@H](C(N)=O)NC(=O)[C@H](CCCC(N)=O)NC(=O)[C@H]([C@@H](C)O)NC(=O)[C@H](Cc2cn(C)c3ccccc23)NC1=O [PDC_EphA2-00010010, da-Me3Py-N-Cbg-Hgn-N-W1Me-V-W1Me-T-Hgn-C-NH2] ({CH2CO}-[dA][NMe3Pal]N[Gly(cBu)][Aad](NH2)N[Trp(1-Me)]V[Trp(1-Me)]T[Aad](NH2)C-NH2; thioether N-12)
< 1	C[C@@H](O)[C@@H]1NC(=O)[C@H](Cc2cn(C)c3ccccc23)NC(=O)[C@H](CCCCNC(N)=O)NC(=O)[C@H](Cc2cn(C)c3c(Cl)cccc23)NC(=O)[C@H](CC(N)=O)N(C)C(=O)[C@H](CCCC(N)=O)NC(=O)[C@H](C2CCC2)NC(=O)[C@H](CC(N)=O)NC(=O)[C@H](Cc2cccnc2)N(C)C(=O)[C@@H](Cc2cccc(C(N)=O)c2)NC(=O)CSC[C@@H](C(N)=O)NC(=O)[C@H](CCCCNC(=N)N)NC1=O [PDC_EphA2-00019429, df3CON-Me3Py-N-Cbg-Hgn-MeN-W1Me7Cl-Hcit-W1Me-T-Har-C-NH2] ({CH2CO}-[dPhe(3-CONH2)][NMe3Pal]N[Gly(cBu)][Aad](NH2)[NMeN][Trp(1-Me,7-Cl)][hCit][Trp(1-Me)]T[hArg]C-NH2; thioether N-12)
< 1	C[C@H]1NC(=O)CSC[C@@H](C(N)=O)NC(=O)[C@H](CCCC(N)=O)NC(=O)[C@H]([C@@H](C)O)NC(=O)[C@H](Cc2cn(C)c3ccccc23)NC(=O)[C@H](CCCCNC(=O)N2CCN(CC(=O)O)CC2)NC(=O)[C@H](Cc2cn(C)c3ccccc23)NC(=O)[C@H](CCC(=O)O)N(C)C(=O)[C@H](CCCC(=O)O)NC(=O)[C@H](C2CCC2)NC(=O)[C@H](CC(N)=O)NC(=O)[C@H](Cc2cccnc2)N(C)C1=O [PDC_EphA2-00010007, da-Me3Py-N-Cbg-Hgl-MeE-W1Me-KCOpipzaa-W1Me-T-Hgn-C-NH2] ({CH2CO}-[dA][NMe3Pal]N[Gly(cBu)][Aad][NMeE][Trp(1-Me)]K([CO-Piperazinyl(4-CH2COOH)])[Trp(1-Me)]T[Aad](NH2)C-NH2; thioether N-12)
< 1	CC(=O)NCCCC[C@@H](NC(=O)CCNC(=O)[C@@H]1CSCC(=O)N[C@H](CCCCNC(=O)N2CCN(CC(=O)O)CC2)C(=O)N(C)[C@@H](Cc2cccnc2)C(=O)N[C@@H](CC(N)=O)C(=O)N[C@@H](CC(C)C)C(=O)N[C@@H](CCCCNC(=O)N2CCN(CC(=O)O)CC2)C(=O)N(C)[C@@H](Cc2ccccc2)C(=O)N[C@@H](Cc2cn(C)c3ccccc23)C(=O)N[C@@H](C(C)C)C(=O)N[C@@H](Cc2cn(C)c3ccccc23)C(=O)N[C@@H]([C@@H](C)O)C(=O)N[C@@H](CCCC(N)=O)C(=O)N1)C(N)=O [PDC_EphA2-00008086, dkCOpipzaa-Me3Py-N-L-KCOpipzaa-MeF-W1Me-V-W1Me-T-Hgn-C-bA-dkAc-NH2] ({CH2CO}-[dK]([CO-Piperazinyl(4-CH2COOH)])[NMe3Pal]NLK([CO-Piperazinyl(4-CH2COOH)])[NMeF][Trp(1-Me)]V[Trp(1-Me)]T[Aad](NH2)C[βAla][dK](Ac)-NH2; thioether N-12)
< 1	CC(C)[C@@H]1NC(=O)[C@H](Cc2cn(C)c3ccccc23)NC(=O)[C@H](CC(N)=O)N(C)C(=O)[C@H](CCCC(N)=O)NC(=O)[C@H](C2CCC2)NC(=O)[C@H](CC(N)=O)NC(=O)[C@H](Cc2ccccc2)N(C)C(=O)[C@@H](C)NC(=O)CSC[C@@H](C(N)=O)NC(=O)[C@H](CCCC(N)=O)NC(=O)[C@H]([C@@H](C)O)NC(=O)[C@H](Cc2cn(C)c3ccccc23)NC1=O [PDC_EphA2-00013693, da-MeF-N-Cbg-Hgn-MeN-W1Me-V-W1Me-T-Hgn-C-NH2] ({CH2CO}-[dA][NMeF]N[Gly(cBu)][Aad](NH2)[NMeN][Trp(1-Me)]V[Trp(1-Me)]T[Aad](NH2)C-NH2; thioether N-12)
< 1	CC(C)[C@@H]1NC(=O)[C@H](Cc2cn(C)c3c(Cl)cccc23)NC(=O)[C@H](CC(N)=O)N(C)C(=O)[C@H](CCCC(N)=O)NC(=O)[C@H](C2CCC2)NC(=O)[C@H](CC(N)=O)NC(=O)[C@H](Cc2cccnc2)N(C)C(=O)[C@@H](Cc2cccc(C(N)=O)c2)NC(=O)CSC[C@@H](C(N)=O)NC(=O)[C@H](CCCC(N)=O)NC(=O)[C@H]([C@@H](C)O)NC(=O)[C@H](Cc2cn(C)c3ccccc23)NC1=O [PDC_EphA2-00019424, df3CON-Me3Py-N-Cbg-Hgn-MeN-W1Me7Cl-V-W1Me-T-Hgn-C-NH2] ({CH2CO}-[dPhe(3-CONH2)][NMe3Pal]N[Gly(cBu)][Aad](NH2)[NMeN][Trp(1-Me,7-Cl)]V[Trp(1-Me)]T[Aad](NH2)C-NH2; thioether N-12)
< 1	CC(=O)NCCCC[C@@H](NC(=O)[C@@H]1CSCC(=O)N[C@H](C)C(=O)N(C)[C@@H](Cc2cccnc2)C(=O)N[C@@H](CC(N)=O)C(=O)N[C@@H](CC(C)C)C(=O)N[C@@H](CCCCNC(=O)N2CCN(CC(=O)O)CC2)C(=O)N(C)[C@@H](Cc2ccccc2)C(=O)N[C@@H](Cc2cn(C)c3ccccc23)C(=O)N[C@@H](CCCCNC(=O)N2CCN(CC(=O)O)CC2)C(=O)N[C@@H](Cc2cn(C)c3ccccc23)C(=O)N[C@@H]([C@@H](C)O)C(=O)N[C@@H](CCC(=O)O)C(=O)N1)C(N)=O [PDC_EphA2-00008090, da-Me3Py-N-L-KCOpipzaa-MeF-W1Me-KCOpipzaa-W1Me-T-E-C-dkAc-NH2] ({CH2CO}-[dA][NMe3Pal]NLK([CO-Piperazinyl(4-CH2COOH)])[NMeF][Trp(1-Me)]K([CO-Piperazinyl(4-CH2COOH)])[Trp(1-Me)]TEC[dK](Ac)-NH2; thioether N-12)
< 1	CC(=O)NCCCC[C@@H](NC(=O)CCNC(=O)[C@@H]1CSCC(=O)N[C@H](C)C(=O)N(C)[C@@H](Cc2cccnc2)C(=O)N[C@@H](CC(N)=O)C(=O)N[C@@H](CC(C)C)C(=O)N[C@@H](CCCCNC(=O)N2CCN(CC(=O)O)CC2)C(=O)N(C)[C@@H](Cc2ccccc2)C(=O)N[C@@H](Cc2cn(C)c3ccccc23)C(=O)N[C@@H](CCCCNC(=O)N2CCN(CC(=O)O)CC2)C(=O)N[C@@H](Cc2cn(C)c3ccccc23)C(=O)N[C@@H]([C@@H](C)O)C(=O)N[C@@H](CCCC(N)=O)C(=O)N1)C(N)=O [PDC_EphA2-00008092, da-Me3Py-N-L-KCOpipzaa-MeF-W1Me-KCOpipzaa-W1Me-T-Hgn-C-bA-dkAc-NH2] ({CH2CO}-[dA][NMe3Pal]NLK([CO-Piperazinyl(4-CH2COOH)])[NMeF][Trp(1-Me)]K([CO-Piperazinyl(4-CH2COOH)])[Trp(1-Me)]T[Aad](NH2)C[βAla][dK](Ac)-NH2; thioether N-12)
< 1	CC(C)C[C@@H]1NC(=O)[C@H](CC(N)=O)NC(=O)[C@H](Cc2cccnc2)N(C)C(=O)[C@@H](C)NC(=O)CSC[C@@H](C(N)=O)NC(=O)[C@H](CC(=O)N(C)C)NC(=O)[C@H]([C@@H](C)O)NC(=O)[C@H](Cc2cn(C)c3ccccc23)NC(=O)[C@H](CCCCNC(=O)N2CCN(CC(=O)O)CC2)NC(=O)[C@H](Cc2cn(C)c3ccccc23)NC(=O)[C@H](CCC(=O)O)N(C)C(=O)[C@H](CCCC(N)=O)NC1=O [PDC_EphA2-00018534, da-Me3Py-N-L-Hgn-MeE-W1Me-KCOpipzaa-W1Me-T-Ndm-C-NH2] ({CH2CO}-[dA][NMe3Pal]NL[Aad](NH2)[NMeE][Trp(1-Me)]K([CO-Piperazinyl(4-CH2COOH)])[Trp(1-Me)]TD(NMe2)C-NH2; thioether N-12)
< 1	CC(C)[C@@H]1NC(=O)[C@H](Cc2cn(C)c3ccccc23)NC(=O)[C@H](CC(N)=O)N(C)C(=O)[C@H](CCCC(N)=O)NC(=O)[C@H](C2CCC2)NC(=O)[C@H](CC(N)=O)NC(=O)[C@H](Cc2cccnc2)N(C)C(=O)[C@@H](C)NC(=O)CSC[C@@H](C(N)=O)NC(=O)[C@H](CCCC(N)=O)NC(=O)[C@H]([C@@H](C)O)NC(=O)[C@H](Cc2cn(C)c3ccccc23)NC1=O [PDC_EphA2-00010011, da-Me3Py-N-Cbg-Hgn-MeN-W1Me-V-W1Me-T-Hgn-C-NH2] ({CH2CO}-[dA][NMe3Pal]N[Gly(cBu)][Aad](NH2)[NMeN][Trp(1-Me)]V[Trp(1-Me)]T[Aad](NH2)C-NH2; thioether N-12)
